pEC50, pIC50: −log10 of the molar value.
biological target: Protein farnesyltransferase (Mus musculus, UniProt Q61239+Q8K2I1); experiment: Inhibition of H-ras processing in transformed NIH3T3 cells; assay type: functional, cell-based

In order of falling pEC50:
1. N#Cc1ccc(Cn2cncc2Cn2ccc3c(C#N)c(-c4cccc5ccccc45)ccc32)cc1  8.68
2. N#Cc1ccc(Cn2cncc2Cn2ccc3cc(-c4cccc5ccccc45)ccc32)cc1  8.24
3. N#Cc1ccc(Cn2cncc2Cn2cc(C#N)c(-c3cccc4ccccc34)c2)cc1  7.47

biological target: T1, Protein farnesyltransferase (Mus musculus) (UniProt Q61239+Q8K2I1); experiment: (§1) Percent inhibition of H-ras processing in transformed NIH3T3 cells at 100 nM; assay type: functional, cell-based

Cn1c(=O)cc(-c2cccc(Cl)c2)c2cc(Cn3cncc3Cc3ccc(C#N)cc3)ccc21 gave an inhibition of 57%.

biological target: T1, Protein farnesyltransferase (Mus musculus); experiment: Percent inhibition of H-ras processing in transformed NIH3T3 cells at 1000 nM; assay type: functional, cell-based

Work on N#Cc1cn(Cc2cncn2Cc2ccc3c(c2)OCO3)cc1-c1cccc2ccccc12 yielded an inhibition of 68%.

biological target: T1, Protein farnesyltransferase (Mus musculus); experiment: as §1; assay type: functional, cell-based

In order of falling inhibition:
1. NC(=O)N1CCC(CC(=O)N2CCC([C@H]3c4ncc(Br)cc4CCc4cc(Cl)cc(Br)c43)CC2)CC1 [LONAFARNIB]  100%
2. Cn1c(=O)cc(-c2cccc(Cl)c2)c2cc(Cn3cncc3Cc3ccc(C#N)cc3)ccc21  57%
3. Cn1c(=O)cc(-c2cccc(Cl)c2)c2cc(C(N)c3cncn3Cc3ccc(C#N)cc3)ccc21 (configuration not stated)  42%
4. Cn1c(=O)cc(-c2cccc(Cl)c2)c2cc(Cn3cncc3Cc3ccc(C#N)cc3)cnc21  39%
5. Cn1c(=O)cc(-c2cccc(Cl)c2)c2cc(C(O)c3cncn3Cc3ccc(C#N)cc3)ccc21 (configuration not stated)  32%
6. Cn1c(=O)cc(-c2cccc(Cl)c2)c2cc(C(=O)c3cncn3Cc3ccc(C#N)cc3)ccc21  30%
7. Cn1c(=O)cc(-c2cccc(Cl)c2)c2cc(C(NC=O)c3cncn3Cc3ccc(C#N)cc3)ccc21 (configuration not stated)  28%
8. Cn1cncc1[C@@](N)(c1ccc(Cl)cc1)c1ccc2c(c1)c(-c1cccc(Cl)c1)cc(=O)n2C  1.6%

biological target: T2, Protein farnesyltransferase (Bos taurus, UniProt P29702+P49355); experiment: Inhibition of bovine Farnesyltransferase; assay type: protein-complex assay

For Cn1c(=O)cc(-c2cccc(Cl)c2)c2cc(Cn3cncc3Cc3ccc(C#N)cc3)ccc21, the pIC50 was 8.33.

biological target: T2, Protein farnesyltransferase; experiment: Inhibition of bovine farnesyltransferase; assay type: protein-complex assay

Cn1c(=O)cc(-c2cccc(Cl)c2)c2cc(Cn3cncc3COc3ccc(C#N)cc3)ccc21 and Cn1c(=O)cc(-c2cccc(Cl)c2)c2cc(Cn3cncc3COCc3ccc(C#N)cc3)ccc21 cannot be ordered by pIC50: < 6.00 for the first, < 6.00 for the second.

Compared with N#Cc1cn(Cc2cncn2Cc2ccc3c(c2)OCO3)cc1-c1cccc2ccccc12, N#Cc1ccc(Cn2cncc2Cn2cc(C#N)c(-c3cccc4ccccc34)c2)cc1 is 1.03 log units higher in pIC50: 8.21 for the first, 9.24 for the second. The second is the more potent here.

Compared with Cn1c(=O)cc(-c2cccc(Cl)c2)c2cc(Cn3cncc3Cn3ccc(=O)cc3)ccc21, Cn1c(=O)cc(-c2cccc(Cl)c2)c2cc(Cn3cncc3Cn3ccc(C#N)c3)ccc21 is higher in pIC50: < 6.00 for the first, 6.25 for the second. The second is the more potent here.

Compared with CC(=O)OC(c1ccc(C#N)cc1)c1cncn1Cc1ccc2c(c1)c(-c1cccc(Cl)c1)cc(=O)n2C (configuration not stated), Cn1c(=O)cc(-c2cccc(Cl)c2)c2cc(Cn3cncc3C(O)c3ccc(C#N)cc3)ccc21 (configuration not stated) is higher in pIC50: < 6.00 for the first, 7.36 for the second. The second is the more potent here.

Cn1c(=O)cc(-c2cccc(Cl)c2)c2cc(C(O)c3cncn3Cc3ccc(C#N)cc3)ccc21 (configuration not stated) and Cn1c(=O)cc(-c2cccc(Cl)c2)c2cc(C(N)c3cncn3Cc3ccc(C#N)cc3)ccc21 (configuration not stated) are within 0.2 log units of each other in pIC50: 8.33 for the first, 8.42 for the second.

Going from N#Cc1ccc(Cn2cncc2Cn2ccc3c(C#N)c(-c4cccc5ccccc45)ccc32)cc1 to N#Cc1ccc(Cn2cncc2Cn2ccc3cc(-c4cccc5ccccc45)ccc32)cc1, the pIC50 falls from 9.82 to 9.03 (0.79 log units).

Going from Cn1c(=O)cc(-c2cccc(Cl)c2)c2cc(Cn3cncc3Cc3ccc(C#N)cc3)ccc21 to Cn1c(=O)cc(-c2cccc(Cl)c2)c2cc(COCc3cncn3Cc3ccc(C#N)cc3)ccc21, the pIC50 falls from 8.14 to 7.05 (1.09 log units). The first is the more potent here.

Compared with Cn1c(=O)cc(-c2cccc(Cl)c2)c2cc(Cn3cncc3Cc3ccc(C#N)cc3)cnc21, Cn1c(=O)cc(-c2cccc(Cl)c2)c2cc(C(=O)c3cncn3Cc3ccc(C#N)cc3)ccc21 is 0.46 log units lower in pIC50: 8.00 for the first, 7.54 for the second.

Compared with Cn1c(=O)cc(-c2cccc(Cl)c2)c2cc(Cn3cncc3Cn3ccc(C(=O)N4CCOCC4)c3)ccc21, Cn1c(=O)cc(-c2cccc(Cl)c2)c2cc(C(NC=O)c3cncn3Cc3ccc(C#N)cc3)ccc21 (configuration not stated) is higher in pIC50: < 6.00 for the first, 8.68 for the second. The second is the more potent here.

Work on Cn1cncc1C(OCc1ccc2c(c1)c(-c1cccc(Cl)c1)cc(=O)n2C)c1ccc(C#N)cc1 (configuration not stated) yielded a pIC50 of 7.10.

biological target: T3, Geranylgeranyl transferase type I (Bos taurus, UniProt P29702+Q5EAD5); experiment: Inhibition of bovine Geranylgeranyltransferase; assay type: protein-complex assay

With Cn1c(=O)cc(-c2cccc(Cl)c2)c2cc(Cn3cncc3Cc3ccc(C#N)cc3)ccc21 the pIC50 was 4.77.

biological target: T3, Geranylgeranyl transferase type I; experiment: Inhibition of bovine geranylgeranyl transferase; assay type: protein-complex assay

Compared with N#Cc1cn(Cc2cncn2Cc2ccc3c(c2)OCO3)cc1-c1cccc2ccccc12, N#Cc1ccc(Cn2cncc2Cn2cc(C#N)c(-c3cccc4ccccc34)c2)cc1 is 0.57 log units higher in pIC50: 6.28 for the first, 6.85 for the second.

CC(=O)OC(c1ccc(C#N)cc1)c1cncn1Cc1ccc2c(c1)c(-c1cccc(Cl)c1)cc(=O)n2C (configuration not stated) and Cn1c(=O)cc(-c2cccc(Cl)c2)c2cc(Cn3cncc3C(O)c3ccc(C#N)cc3)ccc21 (configuration not stated) cannot be ordered by pIC50: < 6.00 for the first, < 5.00 for the second.

Cn1c(=O)cc(-c2cccc(Cl)c2)c2cc(C(O)c3cncn3Cc3ccc(C#N)cc3)ccc21 (configuration not stated) and Cn1c(=O)cc(-c2cccc(Cl)c2)c2cc(C(N)c3cncn3Cc3ccc(C#N)cc3)ccc21 (configuration not stated) are within 0.2 log units of each other in pIC50: 4.77 for the first, 4.66 for the second.

Compared with N#Cc1ccc(Cn2cncc2Cn2ccc3c(C#N)c(-c4cccc5ccccc45)ccc32)cc1, N#Cc1ccc(Cn2cncc2Cn2ccc3cc(-c4cccc5ccccc45)ccc32)cc1 is 0.39 log units lower in pIC50: 6.96 for the first, 6.57 for the second. The first is the more potent here.

Compared with Cn1c(=O)cc(-c2cccc(Cl)c2)c2cc(Cn3cncc3Cc3ccc(C#N)cc3)ccc21, Cn1c(=O)cc(-c2cccc(Cl)c2)c2cc(Cn3cncc3Cc3ccc(C#N)cc3)cnc21 is higher in pIC50: < 5.00 for the first, 5.40 for the second.

First: NC(=O)N1CCC(CC(=O)N2CCC([C@H]3c4ncc(Br)cc4CCc4cc(Cl)cc(Br)c43)CC2)CC1 [LONAFARNIB]
Second: Cn1c(=O)cc(-c2cccc(Cl)c2)c2cc(C(=O)c3cncn3Cc3ccc(C#N)cc3)ccc21
The pIC50 of the first is lower: < 5.00 for the first, > 5.00 for the second.

For Cn1c(=O)cc(-c2cccc(Cl)c2)c2cc(C(NC=O)c3cncn3Cc3ccc(C#N)cc3)ccc21 (configuration not stated), the pIC50 was < 5.00.

Source: ChEMBL document CHEMBL1143527, “Design, synthesis, and activity of achiral analogs of 2-quinolones and indoles as non-thiol farnesyltransferase inhibitors” (Bioorg Med Chem Lett, 2005)
